Results from patent US20260008787A1, “FUSED RING KRAS INHIBITORS FOR TREATING DISEASE” (BLOSSOMHILL THERAPEUTICS, INC., priority 2022, published 2026).
pIC50: −log10 of the molar value.

Tests used:
Assay type in all cases: cell-based
GP2D (KRAS G12D) = assay: Cell proliferation assay (CellTiter-Glo, 72 hours), GP2D; settings: GP2d, 72 h, 384-well, CellTiter-Glo 2.0
Method: (§1) Two thousand KRAS mutant cells per well were seeded in 384-well white plate and then treated with indicated compounds for 72 hours at 37° C. and 5% CO2. Cell proliferation was measured using CellTiter-Glo 2.0 luciferase-based ATP detection assay (Promega, Madison, WI) following the manufacturer's protocol. IC50 values were determined using Prism software (GraphPad Software, San Diego, CA).

AGS (G12D) = assay: Cell proliferation assay (CellTiter-Glo, 72 hours), AGS; settings: 72 h, 384-well, CellTiter-Glo 2.0
Method: as §1

SW620 (KRAS G12V) = assay: Cell proliferation assay (CellTiter-Glo, 72 hours), SW620; settings: Homo sapiens, SW-620, 72 h, 384-well, CellTiter-Glo 2.0
Method: as §1

C#Cc1c(F)ccc2cc(O)cc(-c3nc4c5c(nc(OC[C@@]67CCCN6C[C@H](F)C7)nc5c3F)N(C)[C@@H](CO)CO4)c12 [Example 27, 5-ethynyl-6-fluoro-4-[(9S)-4-fluoro-2-{[(2R,7aS)-2-fluorotetrahydro-1H-pyrrolizin-7a(5H)-yl]methoxy}-9-(hydroxymethyl)-10-methyl-9,10-dihydro-8H-7-oxa-1,3,6,10-tetraazacyclohepta[1,2,3-de]naphthalen-5-yl]naphthalen-2-ol]
pIC50 (GP2D (KRAS G12D)): < 5.52
pIC50 (AGS (G12D)): < 5.52

CCc1c(F)ccc2cc(O)cc(-c3nc4c5c(nc(OC[C@@]67CCCN6C[C@H](F)C7)nc5c3F)N(C)[C@@H](CO)CO4)c12 [Example 28, 5-ethyl-6-fluoro-4-[(9S)-4-fluoro-2-{[(2R,7aS)-2-fluorotetrahydro-1H-pyrrolizin-7a(5H)-yl]methoxy}-9-(hydroxymethyl)-10-methyl-9,10-dihydro-8H-7-oxa-1,3,6,10-tetraazacyclohepta[1,2,3-de]naphthalen-5-yl]naphthalen-2-ol]
pIC50 (GP2D (KRAS G12D)): < 5.52
pIC50 (AGS (G12D)): < 5.52
pIC50 (SW620 (KRAS G12V)): < 5.52

C#Cc1c(F)ccc2cc(O)cc(-c3nc4c5c(nc(OC[C@@]67CCCN6C[C@H](F)C7)nc5c3F)N3C[C@H](O)CC[C@H]3CO4)c12 [Example 29, (8aS,11R)-5-(8-ethynyl-7-fluoro-3-hydroxynaphthalen-1-yl)-4-fluoro-2-{[(2R,7aS)-2-fluorotetrahydro-1H-pyrrolizin-7a(5H)-yl]methoxy}-8,8a,9,10,11,12-hexahydro-7-oxa-1,3,6,12a-tetraazabenzo[4,5]cyclohepta[1,2,3-de]naphthalen-11-ol]
pIC50 (GP2D (KRAS G12D)): 6.44
pIC50 (AGS (G12D)): 6.12
pIC50 (SW620 (KRAS G12V)): < 5.52

C#Cc1c(F)ccc2cc(O)cc(-c3nc4c5c(nc(OC[C@@]67CCCN6C[C@H](F)C7)nc5c3F)N3C[C@](C)(O)CC[C@H]3CO4)c12 [Example 30, (8aS,11R)-5-(8-ethynyl-7-fluoro-3-hydroxynaphthalen-1-yl)-4-fluoro-2-{[(2R,7aS)-2-fluorotetrahydro-1H-pyrrolizin-7a(5H)-yl]methoxy}-11-methyl-8,8a,9,10,11,12-hexahydro-7-oxa-1,3,6,12a-tetraazabenzo[4,5]cyclohepta[1,2,3-de]naphthalen-11-ol]
pIC50 (GP2D (KRAS G12D)): 7.30
pIC50 (AGS (G12D)): 7.01
pIC50 (SW620 (KRAS G12V)): 6.86

C#Cc1c(F)ccc2cc(O)cc(-c3nc4c5c(nc(OC[C@@]67CCCN6C[C@H](F)C7)nc5c3F)N3CCC[C@@](C)(O)[C@H]3CO4)c12 [Example 53, (8aR,9R)-5-(8-ethynyl-7-fluoro-3-hydroxynaphthalen-1-yl)-4-fluoro-2-{[(2R,7aS)-2-fluorotetrahydro-1H-pyrrolizin-7a(5H)-yl]methoxy}-9-methyl-8,8a,9,10,11,12-hexahydro-7-oxa-1,3,6,12a-tetraazabenzo[4,5]cyclohepta[1,2,3-de]naphthalen-9-ol]
pIC50 (GP2D (KRAS G12D)): 7.46
pIC50 (AGS (G12D)): 6.95

C#Cc1c(F)ccc2cc(O)cc(-c3nc4c5c(nc(OC[C@@]67CCCN6C[C@H](F)C7)nc5c3F)N3CC(F)(F)CC[C@H]3CO4)c12 [Example 98, 5-ethynyl-6-fluoro-4-[(8aS)-4,11,11-trifluoro-2-{[(2R,7aS)-2-fluorotetrahydro-1H-pyrrolizin-7a(5H)-yl]methoxy}-8,8a,9,10,11,12-hexahydro-7-oxa-1,3,6,12a-tetraazabenzo[4,5]cyclohepta[1,2,3-de]naphthalen-5-yl]naphthalen-2-ol]
pIC50 (GP2D (KRAS G12D)): 6.94

C#Cc1c(F)ccc2cc(O)cc(-c3nc4c5c(nc(OC[C@@]67CCCN6C[C@H](F)C7)nc5c3F)N3CCC[C@](C)(O)[C@@H]3CO4)c12 [Example 113, (8aS,9S)-5-(8-ethynyl-7-fluoro-3-hydroxynaphthalen-1-yl)-4-fluoro-2-{[(2R,7aS)-2-fluorotetrahydro-1H-pyrrolizin-7a(5H)-yl]methoxy}-9-methyl-8,8a,9,10,11,12-hexahydro-7-oxa-1,3,6,12a-tetraazabenzo[4,5]cyclohepta[1,2,3-de]naphthalen-9-ol]
pIC50 (GP2D (KRAS G12D)): < 5.52
pIC50 (AGS (G12D)): < 5.52
